Assay results reported in patent publication US10471041B2, “Use of geninstein” (DSM IP ASSETS B.V., priority 2007, dated 2019).

Test system: rats treated with scopolamine
Assay: Zone Quick test (phenol red thread) of tear production in the scopolamine dry eye model
Assay type: in vivo, rat
Conditions: FIG. 1
Description: Another well-accepted model of dry eye is the scopolamine model which utilizes subcutaneous injections (5 mg in 10 ml) or dermal patch or gel dosage (Durson et al., Invest. Ophthalmol. Vis. Sci. 43: 632-8, 2002) of scopolamine to induce a dry eye condition in rats by parasympatholytic blockade of natural tear production.
These models and their variations were used to test the efficacy of genistein, delivered as a feed admixture (50 mg/kg low dose and 250 mg/kg high dose) to ameliorate the effects of dry eye. In addition, one test group served as a control group, receiving vehicle feed only with no added isoflavonoids.
Tear volume was assessed by using absorptive threads impregnated with Phenol Red (zone quick test). Outcome measures are according to criteria published in test instructions as well as comparison with control animal results.
Tear volume was monitored by the Zone Quick test. This in-life test is a standardized measure of tear production. It consists of a thread impregnated with phenol red which causes a colour change of the length of the thread that becomes wet from tears when the thread is applied to the lacrimal lake. The length (in mm) of the wetted thread is proportional to the tear volume produced.
0-CON, 0-SCOP: each 8 control animals (not on scopolamine or on scopolamine)
50-SCOP: 8 animals (on scopolamine) suppl. with 50 ppm genistein […]

O=c1c(-c2ccc(O)cc2)coc2cc(O)cc(O)c12 [genistein, 4′,5,7-trihydroxy-isoflavone]
dose dependence of tear volume restoration (250 vs 50 genistein supplementation groups): more pronounced in the group supplemented with 250 mg than in that with 50 mg | tear volume (Zone Quick test, length of wetted thread) (genistein as feed admixture, 50 or 250 ppm, supplementation 2.5 weeks (MIDTEST) and 5.0 weeks (FINALTEST), compared with control animals): restored their tear volume almost to control values
